Source: patent EP0688336B1, “PEPTIDE BORONIC ACID DERIVATIVES HAVING PROTEASE INHIBITING ACTIVITY” (Novartis AG, priority 1993, dated 1994)

Legend:
thrombin = thrombin (Homo sapiens, UniProt P00734); settings: cited from earlier work
[1] = in vivo; cited from earlier work
[2] = test system: pooled citrated human plasma; assay: In vitro coagulation assay: thrombin time (TT); assay type: biochemical; settings: final thrombin concentration 5 U/ml; 10 min at 37°C preincubation
Description: (§1) In vitro coagulation assays are performed with pooled citrated human plasma. Substance to be tested or solvent are incubated with plasma for 10 min at 37°C prior to assay. Thrombin time(TT) determinations are performed at a final thrombin concentration of 5 U/ml. Activated partial thromboplastin time (APTT) is determined by incubating 0.1 ml plasma ± substance to be tested with 0.1 ml purified soya bean phospholipid in ellagic acid (Actin-FS) for 4 min at 37°C and followed by the addition of 0.1 ml CaCl2 (50mM). […] With the compound of Example 1, prolongation of TT above 300 sec is achieved at 1.8 µM, elevation of APTT to 2x the control value is achieved at 4.4 µM.

[3] = test system: pooled citrated human plasma; assay: In vitro coagulation assay: activated partial thromboplastin time (APTT); assay type: biochemical; settings: Actin-FS, 4 min at 37°C, CaCl2
Description: as §1

Washed human platelets = assay: In vitro platelet aggregation assay induced by thrombin; assay type: cell-based; settings: aggregation induced by 1 nM human thrombin
Description: Washed human platelets are prepared by a modification of the method of Ardlie ([…]. 1970, 19:7-17). Washed platelet suspension (0.46 ml) is kept at 37°C and stirred at 1100 rpm. After the addition of the substance to be tested or solvent. the platelets are maintained for 2 min before aggregation is induced by 1 nM human thrombin. The extent of platelet aggregation is quantitated by the maximum aggregation amplitude and inhibition of aggregation rate observed in the absence of inhibitor.

thrombus formation = assay: Arterio-venous shunt thrombosis model; assay type: in vivo; settings: rat
Description: In the arterio-venous shunt thrombosis model in the rat, a modification of the model described by Butler et al. (Blood Coag. Fibrinol., Vol. 3, (1992), page 155), the compounds of the invention prevent thrombus formation in a dose dependent manner. Using the compound of Example 1, thrombus formation is inhibited by 21% at a dose of 0.3 mg/kg i.v. and blocked by a dose of 3 mg/kg i.v.

Row | Compound | inhibition in vitro (thrombin) | LD50 value [1] | concentration at which prolongation of TT above 300 sec is achieved [2] [µM] | concentration at which elevation of APTT to 2x the control value is achieved [3] [µM] | IC50 (Washed human platelets) [nM] | thrombus formation is inhibited (thrombus formation; dose of 0.3 mg/kg i.v.) [%] | thrombus formation (thrombus formation; dose of 3 mg/kg i.v.)
1 | N=C(N)NCCC[C@@H](C=O)NC(=O)[C@@H]1CCCN1C(=O)[C@H](N)Cc1ccccc1 [D-Phe-Pro-Arginal] | ~10^-8 M | quite a low |  |  |  |  | 
2 | CC(C)(C)OC(=O)NC(C[Si](C)(C)C)C(=O)N1CCCC1C(=O)NC(CCCCO)B1OC2CC3CC(C3(C)C)C2(C)O1 [Example 1, Boc-D-TMSal-Pro-NH-CH[(CH2)4OH]B-OPin] |  |  | 1.8 | 4.4 | 3.8 | 21 | blocked
3 | NC(N)=NCCC[C@H](NC(=O)[C@@H]1CCCN1C(=O)[C@H](N)Cc1ccccc1)C(=O)CCl [D-Phe-Pro-Arg-CH2Cl] | ~10^-8 M |  |  |  |  |  | 
